Results published in PubChem BioAssay (NCI).
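In this assay, cells in 96-well plates receive the compound at five concentrations for 48 hours. Endpoints are linearly interpolated between the surrounding concentrations. Abbreviation: GI50, concentration required for 50% inhibition of growth. TGI denotes the concentration required for complete inhibition of growth.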

Assays:
Test in all cases: NCI tumour cell line growth inhibition, 48 h; in the data active = GI50 below about 0.43 µM; inactive = the rest
OVCAR-3 ovarian = test system: OVCAR-3 ovarian
NCI-H460 lung = test system: NCI-H460 lung
K-562 leukemia = test system: K-562 leukemia
COLO 205 colon = test system: COLO 205 colon
MALME-3M melanoma = test system: MALME-3M melanoma
SK-MEL-2 melanoma = test system: SK-MEL-2 melanoma
SF-539 CNS = test system: SF-539 CNS
SK-OV-3 ovarian = test system: SK-OV-3 ovarian
PC-3 prostate = test system: PC-3 prostate
SK-MEL-28 melanoma = test system: SK-MEL-28 melanoma
A549 NSCLC = test system: A549 NSCLC
TK-10 renal = test system: TK-10 renal
HCT-15 colon = test system: HCT-15 colon
EKVX NSCLC = test system: EKVX NSCLC
UACC-257 melanoma = test system: UACC-257 melanoma
ACHN renal = test system: ACHN renal
T-47D breast = test system: T-47D breast
UO-31 renal = test system: UO-31 renal
CAKI-1 renal = test system: CAKI-1 renal
HOP-92 NSCLC = test system: HOP-92 NSCLC
RPMI-8226 leukemia = test system: RPMI-8226 leukemia
MCF7 breast = test system: MCF7 breast
SK-MEL-5 melanoma = test system: SK-MEL-5 melanoma
NCI-H522 lung = test system: NCI-H522 lung
SW-620 colon = test system: SW-620 colon
BT-549 breast = test system: BT-549 breast
SNB-75 CNS = test system: SNB-75 CNS
IGROV1 ovarian = test system: IGROV1 ovarian
LOX IMVI melanoma = test system: LOX IMVI melanoma
HOP-62 NSCLC = test system: HOP-62 NSCLC
M14 melanoma = test system: M14 melanoma
SN12C renal = test system: SN12C renal
UACC-62 melanoma = test system: UACC-62 melanoma
SF-268 CNS = test system: SF-268 CNS
HCC-2998 colon = test system: HCC-2998 colon
786-0 renal = test system: 786-0 renal
SNB-19 CNS = test system: SNB-19 CNS
HS 578T breast = test system: HS 578T breast
RXF 393 renal = test system: RXF 393 renal
OVCAR-8 ovarian = test system: OVCAR-8 ovarian
KM12 colon = test system: KM12 colon
NCI-H23 lung = test system: NCI-H23 lung
DU-145 prostate = test system: DU-145 prostate
A498 renal = test system: A498 renal
NCI-H226 lung = test system: NCI-H226 lung
OVCAR-5 ovarian = test system: OVCAR-5 ovarian
U251 CNS = test system: U251 CNS
MDA-MB-435 = test system: MDA-MB-435
HL-60(TB) leukemia = test system: HL-60(TB) leukemia
OVCAR-4 ovarian = test system: OVCAR-4 ovarian
SF-295 CNS = test system: SF-295 CNS
HT29 colon = test system: HT29 colon
MDA-MB-231 breast = test system: MDA-MB-231 breast
CCRF-CEM leukemia = test system: CCRF-CEM leukemia
MOLT-4 leukemia = test system: MOLT-4 leukemia
NCI/ADR-RES ovarian = test system: NCI/ADR-RES ovarian

Clc1nc(Cl)c2ncn(C/C=C/COc3cccc(OC/C=C/Cn4cnc5c(Cl)nc(Cl)nc54)c3)c2n1
25.3 µM: TGI (MDA-MB-231 breast)
27.8 µM: TGI (DU-145 prostate) | TGI (HL-60(TB) leukemia)
> 100 µM: TGI (OVCAR-3 ovarian) | TGI (NCI-H460 lung) | TGI (K-562 leukemia) | TGI (COLO 205 colon) | TGI (MALME-3M melanoma) | TGI (SK-MEL-2 melanoma) | TGI (SF-539 CNS) | TGI (SK-OV-3 ovarian) | TGI (PC-3 prostate) | TGI (SK-MEL-28 melanoma) | TGI (A549 NSCLC) | TGI (TK-10 renal) | TGI (HCT-15 colon) | TGI (EKVX NSCLC) | TGI (UACC-257 melanoma) | TGI (ACHN renal) | TGI (T-47D breast) | TGI (UO-31 renal) | TGI (CAKI-1 renal) | TGI (HOP-92 NSCLC) | TGI (RPMI-8226 leukemia) | TGI (MCF7 breast) | TGI (SK-MEL-5 melanoma) | TGI (NCI-H522 lung) | TGI (SW-620 colon) | TGI (BT-549 breast) | TGI (SNB-75 CNS) | TGI (IGROV1 ovarian) | TGI (LOX IMVI melanoma) | TGI (HOP-62 NSCLC) | TGI (M14 melanoma) | TGI (SN12C renal) | TGI (UACC-62 melanoma) | TGI (SF-268 CNS) | TGI (HCC-2998 colon) | TGI (786-0 renal) | TGI (SNB-19 CNS) | TGI (HS 578T breast) | TGI (RXF 393 renal) | TGI (OVCAR-8 ovarian) | TGI (KM12 colon) | TGI (NCI-H23 lung) | TGI (A498 renal) | TGI (NCI-H226 lung) | TGI (OVCAR-5 ovarian) | TGI (U251 CNS) | TGI (MDA-MB-435) | TGI (OVCAR-4 ovarian) | TGI (SF-295 CNS) | TGI (HT29 colon) | TGI (CCRF-CEM leukemia) | TGI (MOLT-4 leukemia) | TGI (NCI/ADR-RES ovarian)
inactive: GI50 (OVCAR-3 ovarian) 95 µM | GI50 (NCI-H460 lung) > 100 µM | GI50 (K-562 leukemia) 29.7 µM | GI50 (COLO 205 colon) > 100 µM | GI50 (MALME-3M melanoma) > 100 µM | GI50 (SK-MEL-2 melanoma) > 100 µM | GI50 (SF-539 CNS) > 100 µM | GI50 (SK-OV-3 ovarian) > 100 µM | GI50 (PC-3 prostate) 42 µM | GI50 (SK-MEL-28 melanoma) > 100 µM | GI50 (A549 NSCLC) > 100 µM | GI50 (TK-10 renal) > 100 µM | GI50 (HCT-15 colon) 57.7 µM | GI50 (EKVX NSCLC) > 100 µM | GI50 (UACC-257 melanoma) > 100 µM | GI50 (ACHN renal) > 100 µM | GI50 (T-47D breast) 99.8 µM | GI50 (UO-31 renal) > 100 µM | GI50 (CAKI-1 renal) > 100 µM | GI50 (HOP-92 NSCLC) > 100 µM | GI50 (RPMI-8226 leukemia) 25.3 µM | GI50 (MCF7 breast) 73.5 µM | GI50 (SK-MEL-5 melanoma) 53.5 µM | GI50 (NCI-H522 lung) > 100 µM | GI50 (SW-620 colon) > 100 µM | GI50 (BT-549 breast) 66.1 µM | GI50 (SNB-75 CNS) 57.1 µM | GI50 (IGROV1 ovarian) > 100 µM | GI50 (LOX IMVI melanoma) 25.9 µM | GI50 (HOP-62 NSCLC) 99.6 µM | GI50 (M14 melanoma) 32.7 µM | GI50 (SN12C renal) > 100 µM | GI50 (UACC-62 melanoma) > 100 µM | GI50 (SF-268 CNS) > 100 µM | GI50 (HCC-2998 colon) 42.1 µM | GI50 (786-0 renal) > 100 µM | GI50 (SNB-19 CNS) > 100 µM | GI50 (HS 578T breast) 39.4 µM | GI50 (RXF 393 renal) 65 µM | GI50 (OVCAR-8 ovarian) > 100 µM | GI50 (KM12 colon) 56.5 µM | GI50 (NCI-H23 lung) > 100 µM | GI50 (DU-145 prostate) 14.7 µM | GI50 (A498 renal) > 100 µM | GI50 (NCI-H226 lung) > 100 µM | GI50 (OVCAR-5 ovarian) > 100 µM | GI50 (U251 CNS) 65.6 µM | GI50 (MDA-MB-435) > 100 µM | GI50 (HL-60(TB) leukemia) 14.7 µM | GI50 (OVCAR-4 ovarian) 36.3 µM | GI50 (SF-295 CNS) > 100 µM | GI50 (HT29 colon) > 100 µM | GI50 (MDA-MB-231 breast) 12.7 µM | GI50 (CCRF-CEM leukemia) 31 µM | GI50 (MOLT-4 leukemia) 26.5 µM | GI50 (NCI/ADR-RES ovarian) > 100 µM
